# Measured values published in patent US20220175675A1, “ENCAPSULATING MOLECULES IN FAT GLOBULES” (The Regents of the University of California, priority 2019, published 2022).
# Assay: Gastric stability of vitamin D3 in simulated gastric fluid (LC-MS)
# Format: in vitro ADME
# Settings: 2 h, 37° C., pH 3, pepsin
# Method: Degradation of VD3 under the simulated gastric conditions was performed on free VD3 and encapsulated VD3. The simulated gastric fluid (SGF) was prepared according to the method of Minekus et al. (2014). In summary, electrolyte solution was prepared in Milli-Q water at 1.25× of the final concentration and stored at 37° C. To prepare 10 mL solution to be used in the digestion procedure: 7.5 mL SGF, 6 mg pepsin solubilized in 1.6 mL SGF, 5 μL of 0.3 M CaCl2(H2O)2 prepared in water and filtered through a 0.22 μm PSE syringe filter. The pH value was corrected to reach 3, and if needed, water was added to reach 10mL (approximately […]). The solution was then placed in a 37° C. incubator to equilibrate. Cream separated at the end of the incubation period with VD3 was suspended in water at 8% w/v and allowed to briefly incubate at 37° C.
# The separated cream (250 mg) containing VD3, obtained as described before, was added to 5 mL of SGF. For the digestion of free VD3 in methanol, 25 μL of 40 mg/mL solution was added to […] of SGF. Solutions were briefly purged with nitrogen and sealed securely. Simulated digestion was carried for 2h at 37° C. At the end of the incubation step, ethanolic pyrogallol solution (10 mL, 1% w/v) was added and vortexed vigorously. Potassium hydroxide (2 mL, 50%w/v) was then added and mixed. […]
smiles,measurement,setting,value
C=C1CC[C@H](O)C/C1=C/C=C1\CCC[C@]2(C)[C@@H]([C@H](C)CCCC(C)C)CC[C@@H]12 [Cholecalciferol],degradation/loss of VD3 in simulated gastric fluid,listed as free VD3,approximately 6%
same,degradation/loss of VD3 in simulated gastric fluid,listed as un-encapsulated VD3,approximately 8%
